From patent US10183944B2 (Asana Biosciences, LLC, priority 2011, dated 2019)
pIC50: −log10 of the molar value. Where a name gives a salt, the structure may show the parent alone.

Key:
[1] = target: Syk (356-635 amino acids) catalytic domain (Homo sapiens (Human), UniProt P43405); assay: Inhibition of enzymatic Syk kinase activity (radiometric); format: biochemical; details: read-out: IC50 Syk
Description: The objective of this assay was to examine by radiometric method the ability of compounds to inhibit Syk kinase enzyme. Syk is capable of phosphorylating substrates such as VAV, LAT, SLP-76, which in turn activate MAPK, PLCγ signaling pathways. […] This in vitro assay tests the ability of syk to phosphorylate a substrate peptide in the presence of ATP. By using a radio-labeled form of ATP, it is possible to measure the amount of phosphorylation of the substrate. The enzyme transfers a radio-labeled phosphate group from γ32 P labeled ATP to pG4T. Briefly the enzyme was incubated with substrate, radio-labeled & cold ATP and substrate in buffer with or without compounds. At the end of the reaction, the reaction mixture was transferred on to a Multiscreen filter plate and unreacted γ^32P ATP was washed off. The filter plate was dried and the radioactivity was measured on a scintillation counter to estimate the incorporated radioactivity on the substrate. The percent inhibition of activity of the enzyme was calculated by comparing counts in the presence and absence of compounds. […] 2.5 μL of 10% DMSO or compound in 10% DMSO was added to the wells in a 96 well V-bottom plate. Optimized concentration of in-house Syk enzyme (different batches of Syk (356-635) kinase domain) were used at optimized concentrations) ranging from 0.035 ng to 7.5 ng/reaction diluted in assay buffer was added to a total volume of 12.5 μL). Compound and protein were incubated for 30 minutes at room temperature on a plate shaker. Ten μL of a substrate mix containing 100 μM ATP (0.25 μL), γ-P^32-ATP (0.1 μL; 10 μCi/μL), pG4T (0.25 μL; 10 mg/mL) and 1× assay buffer (9.4 μL) was added to all the wells. Samples were incubated at 30° C. for 10 minutes after mixing. The reaction was stopped by the addition of 8N HCl (13 μL) containing 100 mM ATP. Thirty μL of sample was transferred to the center of a 2×2 cm^2 Whatman® P81 chromatography paper. After allowing the sample to dry for one minute, the assay squares were washed 3 times for 5 minutes each in ortho-phosphoric acid (0.5%) and once in acetone. Assay squares were dried for 15 minutes in a 30° C. oven and transferred to 96 well optiplate. Microscint-O® reagent (100 μL, Perkin Elmer) was added to each well, the plate was sealed with Topseal®-A microplates and incubated for 10 minutes at room temperature at very low speed on rocker and the plate was read in the Topcount® NXL instrument. The following calculations were made: Fold induction=radioactivity counts (uncorrected values) in positive control/substrate control.

[2] = target: JAK2 (Homo sapiens (Human), UniProt O60674); assay: Inhibition of enzymatic JAK2 kinase activity (TR-FRET); format: biochemical; details: read-out: IC50 JAK
Description: The objective of this assay was to screen compounds in a Time-resolved fluorescence resonance energy transfer (TR-FRET) Enzymatic assay method for their potential to inhibit JAK2 (Janus kinase) activity.
TR-FRET assays are homogeneous proximity assays where Eu-labeled antiphosphotyrosine antibody binds to the phosphorylated substrates labeled with Ulight fluorescence acceptor. Eu can transfer energy to Ulight accepter in the complex and the interaction of two dye-labeled binding partners is detected by the energy transfer between a donor and an acceptor dye, and the subsequent light emission by the acceptor dye. The intensity of the light emission is proportional to the level of Ulight peptide phosphorylation.
Two μL of 10% DMSO in blank, substrate control and positive control wells and 2 μL of test compound in test wells was added. Thirteen μL of assay buffer in blank and substrate control wells and 13 μL of Enzyme buffer mix in positive and test wells was added. The reaction mixture was incubated for 30 minutes at RT on a plate shaker. Ultra Light-pGT substrate (5 μL) [poly Glu-Tyr (4:1) labeled with U Light TM dye, a tyrosine kinase substrate] and ATP mix was added to all wells. The reaction plate was incubated for 60 minutes at RT on a plate shaker. The reaction was stopped by adding 40 mM EDTA (10 μL) in buffer. Ten μL of antibody was added to all the wells. The plate was read in a Wallac® 1420 Multilabel Counter Victor 3 instrument (Ex: 340 nm Em: 615 & 665 nm) The following calculations were made:
F@ 665 Value-Buffer blank
F@ 615 Value-Buffer blank
Ratio of F@665/F@615-Substrate Blank
% Activity=(Test Sample/Positive control)*100%
Inhibition=(100−% Activity)

Sequence of JAK2 (O60674 808-1132): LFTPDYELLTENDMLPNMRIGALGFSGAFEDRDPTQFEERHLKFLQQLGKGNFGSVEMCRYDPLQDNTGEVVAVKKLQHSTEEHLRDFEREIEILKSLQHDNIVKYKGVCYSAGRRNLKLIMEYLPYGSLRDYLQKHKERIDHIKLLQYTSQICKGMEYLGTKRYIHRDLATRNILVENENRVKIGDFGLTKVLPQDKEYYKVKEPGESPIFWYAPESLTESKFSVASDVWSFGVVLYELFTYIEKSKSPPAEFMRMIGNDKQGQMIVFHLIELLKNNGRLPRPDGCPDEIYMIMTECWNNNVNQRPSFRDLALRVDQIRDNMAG

| SMILES | pIC50 [1] | pIC50 [2] |
| --- | --- | --- |
| O=c1[nH]ncc2nc(N3CCOCC3)nc(Nc3ccc(CN4CCNCC4)cc3)c12 [Example 3, 2-morpholino-4-(4-(piperazin-1-ylmethyl)phenylamino)pyrimido[4,5-d]pyridazin-5(6H)-one hydrochloride] | < 7.00 | > 7.00 |
| O=c1[nH]ncc2nc(-c3ccccc3)nc(Nc3ccc(CN4CCOCC4)cc3)c12 [Example 4, 4-(4-(morpholinomethyl)phenylamino)-2-phenylpyrimido[4,5-d]pyridazin-5(6H)-one] | > 7.00 | > 7.30 |
| O=c1[nH]ncc2nc(N3CCC4(CC3)CC4)nc(Nc3ccc(N4CCOCC4)cc3)c12 [Example 18, 4-(4-morpholinophenylamino)-2-(6-azaspiro[2.5]octan-6-yl)pyrimido[4,5-d]pyridazin-5(6H)-one] | < 7.00 | > 7.30 |
| O=c1[nH]ncc2nc(-c3ccccc3)nc(Nc3ccc(CN4CCC5(CC4)COC5)cc3)c12 [Example 23, 4-(4-(2-oxa-7-azaspiro[3.5]nonan-7-ylmethyl)phenylamino)-2-phenylpyrimido[4,5-d]pyridazin-5(6H)-one] | > 7.30 | > 7.00 |
| O=C(O)c1ccc(-c2nc(Nc3ccc(CN4CCNCC4)cc3)c3c(=O)[nH]ncc3n2)cc1 [Example 27, 4-(5-oxo-4-(4-(piperazin-1-ylmethyl)phenylamino)-5,6-dihydropyrimido[4,5-d]pyridazin-2-yl)benzoic acid hydrochloride] | < 7.00 | < 7.00 |
| CCN1CCN(c2ccc(Nc3nc(-c4ccc(OC(F)(F)F)cc4)nc4cn[nH]c(=O)c34)cc2)CC1 [Example 28, 4-(4-(4-ethylpiperazin-1-yl)phenylamino)-2-(4-(trifluoromethoxy)phenyl) pyrimido[4,5-d]pyridazin-5(6H)-one] | < 7.00 | < 7.00 |
| O=c1[nH]ncc2nc(N3CCNCC3)nc(Nc3ccc(CN4CCNCC4)cc3)c12 [Example 32, 2-(piperazin-1-yl)-4-(4-(piperazin-1-ylmethyl)phenylamino)pyrimido[4,5-d]pyridazin-5(6H)-one dihydrochloride] | > 7.00 | < 7.00 |
| COc1ccc(Nc2nc(N3CCC(CC#N)CC3)nc3cn[nH]c(=O)c23)cc1OC [Example 319, 2-(1-(4-((3,4-dimethoxyphenyl)amino)-5-oxo-5,6-dihydropyrimido[4,5-d]pyridazin-2-yl)piperidin-4-yl)acetonitrile] | < 7.00 | – |
| COc1cccc(Nc2nc(N3CCCCCC3)nc3cn[nH]c(=O)c23)c1 [Example 320, 2-(azepan-1-yl)-4-((3-methoxyphenyl)amino)pyrimido[4,5-d]pyridazin-5(6H)-one] | < 7.00 | – |
| COc1cccc(Nc2nc(N3CCC(CC#N)CC3)nc3cn[nH]c(=O)c23)c1 [Example 321, 2-(1-(4-((3-methoxyphenyl)amino)-5-oxo-5,6-dihydropyrimido[4,5-d]pyridazin-2-yl)piperidin-4-yl)acetonitrile] | < 7.00 | – |
| O=c1[nH]ncc2nc(N3CCCCCC3)nc(Nc3ccc4c(c3)OCO4)c12 [Example 327, 2-(azepan-1-yl)-4-(benzo[d][1,3]dioxol-5-ylamino)pyrimido[4,5-d]pyridazin-5(6H)-one] | < 7.00 | – |
| N#CCC1CCN(c2nc(Nc3ccc4c(c3)OCO4)c3c(=O)[nH]ncc3n2)CC1 [Example 328, 2-(1-(4-(benzo[d][1,3]dioxol-5-ylamino)-5-oxo-5,6-dihydropyrimido[4,5-d]pyridazin-2-yl)piperidin-4-yl) acetonitrile] | < 7.00 | – |
| N#CCC1CCN(c2nc(Nc3ccc(N4CCC(O)CC4)cc3)c3c(=O)n(COP(=O)(O)O)ncc3n2)CC1 [Example 330, sodium (2-(4-(cyanomethyl)piperidin-1-yl)-4-((4-(4-hydroxypiperidin-1-yl)phenyl)amino)-5-oxopyrimido[4,5-d]pyridazin-6(5H)-yl)methyl phosphate] | < 7.00 | – |
| CS(=O)(=O)c1ccc(Nc2nc(N3CCC(CC#N)CC3)nc3cn[nH]c(=O)c23)cc1 [Example 333, 2-(1-(4-((4-(methylsulfonyl)phenyl)amino)-5-oxo-5,6-dihydropyrimido[4,5-d]pyridazin-2-yl)piperidin-4-yl) acetonitrile] | < 7.00 | – |

Continued, values first:

| pIC50 [1] | pIC50 [2] | SMILES |
| --- | --- | --- |
| > 7.00 | < 7.00 | COC(=O)c1ccc(-c2nc(Nc3ccc(CN4CCNCC4)cc3)c3c(=O)[nH]ncc3n2)cc1 [Example 2, Methyl 4-(5-oxo-4-(4-(piperazin-1-ylmethyl)phenylamino)-5,6-dihydropyrimido[4,5-d]pyridazin-2-yl)benzoate hydrochloride] |
| > 7.30 | > 8.00 | O=C(O)CN1CCN(c2ccc(Nc3nc(-c4ccccc4)nc4cn[nH]c(=O)c34)cc2)CC1 [Example 12, 2-(4-(4-(5-oxo-2-phenyl-5,6-dihydropyrimido[4,5-d]pyridazin-4-ylamino)phenyl)piperazin-1-yl) acetic acid] |
| > 7.00 | > 7.30 | O=C(O)C1CC12CCN(c1ccc(Nc3nc(-c4ccccc4)nc4cn[nH]c(=O)c34)cc1)CC2 (stereo not shown) [Example 22, sodium 6-(4-(5-oxo-2-phenyl-5,6-dihydropyrimido[4,5-d]pyridazin-4-ylamino)phenyl)-6-azaspiro[2.5]octane-1-carboxylate] |
| > 7.30 | < 7.00 | COc1cccc(-c2nc(Nc3ccc(CN4CCNCC4)cc3)c3c(=O)[nH]ncc3n2)c1 [Example 31, 2-(3-methoxyphenyl)-4-(4-(piperazin-1-ylmethyl)phenylamino)pyrimido[4,5-d]pyridazin-5(6H)-one hydrochloride] |
| < 7.00 | > 7.00 | COc1ccccc1-c1nc(Nc2ccc(CN3CCNCC3)cc2)c2c(=O)[nH]ncc2n1 [Example 36, 2-(2-methoxyphenyl)-4-(4-(piperazin-1-ylmethyl)phenylamino)pyrimido[4,5-d]pyridazin-5(6H)-one hydrochloride] |
| > 8.00 | > 7.00 | CCN1CCN(c2ccc(Nc3nc(-c4ccsc4)nc4cn[nH]c(=O)c34)cc2)CC1 [Example 37, 4-(4-(4-ethylpiperazin-1-yl)phenylamino)-2-(thiophen-3-yl)pyrimido[4,5-d]pyridazin-5(6H)-one hydrochloride] |
| > 7.30 | < 7.00 | O=c1[nH]ncc2nc(-c3ccc(Cl)cc3)nc(Nc3ccc(CN4CCNCC4)cc3)c12 [Example 40, 2-(4-chlorophenyl)-4-(4-(piperazin-1-ylmethyl)phenylamino)pyrimido[4,5-d]pyridazin-5(6H)-one hydrochloride] |
| < 7.00 | – | COc1cc(Nc2nc(N3CCC(CC#N)CC3)nc3cn[nH]c(=O)c23)cc(OC)c1OC [Example 326, 2-(1-(5-oxo-4-((3,4,5-trimethoxyphenyl)amino)-5,6-dihydropyrimido[4,5-d]pyridazin-2-yl)piperidin-4-yl) acetonitrile] |
| > 7.00 | – | N#CCC1CCN(c2nc(Nc3ccc(CO)cc3)c3c(=O)[nH]ncc3n2)CC1 [Example 332, 2-(1-(4-((4-(hydroxymethyl)phenyl)amino)-5-oxo-5,6-dihydropyrimido[4,5-d]pyridazin-2-yl)piperidin-4-yl) acetonitrile] |
